Test results as given in patent publication US9289496B2, “Lipid dipeptide and gel” (Nissan Chemical Industries, Ltd., priority 2008, dated 2016).
Residues, ends and D or L forms follow the SMILES beside them.

Key:
[1] = Evaluation of gelation of free N-palmitoyl-Gly-His in propylene glycol (PG) solution; type: physicochemical; design: key: a sample that formed a gel is shown as “O”; a sample that partially formed a gel is shown as “A”; a sample that formed no gel is shown as “X”
Procedure: (§1) Free N-palmitoyl-Gly-His prepared in Example 4 was placed into a screw tube (Maruemu No. 1, manufactured by Maruemu Corp.). Each of the propylene solutions having various concentrations shown in Table 6 was added into the screw tube so as to have a free N-palmitoyl-Gly-His concentration of 0.25%, 0.5%, or 1% (w/v). The mixture was heated at 100° C. with a constant temperature heat block (manufactured by Nippon Genetics Co., Ltd.), and then allowed to stand at room temperature.
In Table, a sample that formed a gel is shown as “O”, a sample that partially formed a gel is shown as “A”, and a sample that formed no gel is shown as “X”.

[2] = Evaluation of gelation of free N-palmitoyl-Gly-His in solution containing inorganic salt, amino acid or organic substance; type: physicochemical
Procedure: as §1, with “An aqueous solution dissolving each additive described” for “Each of the propylene solutions having various concentrations shown”, “7” for “6”, “0.5%” for “0.25%, 0.5%,”
In Table, a sample that formed a gel is shown as “O”, a sample that partially formed a gel is shown as “A”, and a sample without evaluation is shown as “-”.

Question: Which Gelation ([1]; 0.25% (w/v), mass fraction PG/water + PG 0.1) does the source give for CCCCCCCCCCCCCCCC(=O)NCC(=O)N[C@@H](Cc1c[nH]cn1)C(=O)O [Example 4, N-Palmitoyl-Gly-His] (HELM PEPTIDE1{[CCCCCCCCCCCCCCCC(=O)[*:2]].G.H}$$$$V2.0) here?
Answer: Its Gelation is “Δ”.

Question: What about the Gelation ([1]; 0.25% (w/v), mass fraction PG/water + PG 0.2) of the same compound?
Answer: Its Gelation is “Δ”.

Question: And the Gelation ([1]; 0.25% (w/v), mass fraction PG/water + PG 0.3)?
Answer: The Gelation was “Δ”.

Question: And the Gelation ([1]; 0.25% (w/v), mass fraction PG/water + PG 0.5)?
Answer: Its Gelation is “◯”.

Question: What about the Gelation ([1]; 0.25% (w/v), mass fraction PG/water + PG 0.7) of the same compound?
Answer: The Gelation was “◯”.

Question: And the Gelation ([1]; 0.25% (w/v), mass fraction PG/water + PG 1.0)?
Answer: The Gelation was “X”.

Question: And the Gelation ([1]; 0.5% (w/v), mass fraction PG/water + PG 0.1)?
Answer: The Gelation was “Δ”.

Question: And the Gelation ([1]; 0.5% (w/v), mass fraction PG/water + PG 0.2)?
Answer: The Gelation was “Δ”.

Question: What about the Gelation ([1]; 0.5% (w/v), mass fraction PG/water + PG 0.3) of the same compound?
Answer: The Gelation was “◯”.

Question: And the Gelation ([1]; 0.5% (w/v), mass fraction PG/water + PG 0.5)?
Answer: The Gelation was “◯”.

Question: What about the Gelation ([1]; 0.5% (w/v), mass fraction PG/water + PG 0.7) of the same compound?
Answer: The Gelation was “◯”.

Question: And the Gelation ([1]; 0.5% (w/v), mass fraction PG/water + PG 1.0)?
Answer: Its Gelation is “X”.

Question: And the Gelation ([1]; 1.0% (w/v), mass fraction PG/water + PG 0.1)?
Answer: Its Gelation is “◯”.

Question: And the Gelation ([1]; 1.0% (w/v), mass fraction PG/water + PG 0.2)?
Answer: The Gelation was “◯”.

Question: And the Gelation ([1]; 1.0% (w/v), mass fraction PG/water + PG 0.3)?
Answer: Its Gelation is “◯”.

Question: And the Gelation ([1]; 1.0% (w/v), mass fraction PG/water + PG 0.5)?
Answer: The Gelation was “◯”.

Question: And the Gelation ([1]; 1.0% (w/v), mass fraction PG/water + PG 0.7)?
Answer: Its Gelation is “◯”.

Question: What about the Gelation ([1]; 1.0% (w/v), mass fraction PG/water + PG 1.0) of the same compound?
Answer: Its Gelation is “X”.

Question: And the Gelation ([2]; 0.5% (w/v), aqueous solution of Alanine 0.1 wt %)?
Answer: Its Gelation is “◯”.

Question: What about the Gelation ([2]; 0.5% (w/v), aqueous solution of Aspartic acid 0.27 wt %) of the same compound?
Answer: Its Gelation is “◯”.

Question: And the Gelation ([2]; 0.5% (w/v), aqueous solution of Glycine 0.1 wt %)?
Answer: The Gelation was “◯”.

Question: And the Gelation ([2]; 0.5% (w/v), aqueous solution of KCl 0.1 wt %)?
Answer: Its Gelation is “Δ”.

Question: What about the Gelation ([2]; 0.5% (w/v), aqueous solution of KCl 0.5 wt %) of the same compound?
Answer: Its Gelation is “Δ”.

Question: What about the Gelation ([2]; 0.5% (w/v), aqueous solution of Lysine hydrochloride 0.1 wt %) of the same compound?
Answer: Its Gelation is “Δ”.

Question: What about the Gelation ([2]; 0.5% (w/v), aqueous solution of NaCl 0.1 wt %) of the same compound?
Answer: Its Gelation is “Δ”.

Question: And the Gelation ([2]; 0.5% (w/v), aqueous solution of NaCl 0.5 wt %)?
Answer: The Gelation was “◯”.

Question: What about the Gelation ([2]; 0.5% (w/v), aqueous solution of Phenoxyethanol 0.25 wt %) of the same compound?
Answer: The Gelation was “◯”.

Question: What about the Gelation ([2]; 1.0% (w/v), aqueous solution of KCl 0.1 wt %) of the same compound?
Answer: Its Gelation is “◯”.

Question: What about the Gelation ([2]; 1.0% (w/v), aqueous solution of KCl 0.5 wt %) of the same compound?
Answer: Its Gelation is “◯”.

Question: And the Gelation ([2]; 1.0% (w/v), aqueous solution of NaCl 0.1 wt %)?
Answer: The Gelation was “◯”.

Question: And the Gelation ([2]; 1.0% (w/v), aqueous solution of NaCl 0.5 wt %)?
Answer: The Gelation was “◯”.

Question: What about the Gelation ([2]; 1.0% (w/v), aqueous solution of Phenoxyethanol 0.25 wt %) of the same compound?
Answer: Its Gelation is “◯”.
